Data as given in ChEMBL document CHEMBL1201862, “PubChem BioAssay data set” (2004).
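The compound was tested at five concentrations on cells cultured in 96-well plates, with a 48-hour exposure period. GI50 is the concentration that inhibits growth by half.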 Active and inactive are the calls of the source. No stated cut-off is given here; in the data, active = GI50 up to about 1.1 µM and inactive = higher.

Legend:
Experiment in all cases: inhibition of tumour cell growth, NCI panel, 48 h
[1] = system: 786-0
[2] = system: A498
[3] = system: BT-549
[4] = system: COLO 205
[5] = system: HCT-116
[6] = system: HOP-62
[7] = system: HT-29
[8] = system: Hs-578T
[9] = system: LOX IMVI
[10] = system: MOLT-4
[11] = system: Malme-3M
[12] = system: NCI-H460
[13] = system: SF-295
[14] = system: SF-539
[15] = system: SK-MEL-5
[16] = system: SN12C
[17] = system: SNB-75
[18] = system: MDA-MB-435
[19] = system: NCI-H226

Measured: GI50

Cc1cc2c(c(=O)o1)C1=S(SC(c3ccccc3)=C1)S2 (stereo not drawn)
inactive: [1] 15 µM | [2] 13.9 µM | [3] > 100 µM | [4] > 100 µM | [5] 22.8 µM | [6] 20.8 µM | [7] 38.9 µM | [8] 41.2 µM | [9] 87.1 µM | [10] > 100 µM | [11] 30.1 µM | [12] 37.2 µM | [13] 27.3 µM | [14] 24.3 µM | [15] 47.4 µM | [16] 67.3 µM | [17] 26 µM

COc1ccccc1NS(=O)(=O)c1ccc2ncn(NS(=O)(=O)c3ccc(Cl)cc3)c(=O)c2c1
inactive: [1] > 100 µM | [3] > 100 µM | [4] > 100 µM | [5] > 100 µM | [6] > 100 µM | [7] > 100 µM | [8] 77.3 µM | [9] > 100 µM | [18] > 100 µM | [10] > 100 µM | [11] > 100 µM | [19] > 100 µM | [12] > 100 µM | [13] 17.7 µM | [14] > 100 µM | [16] > 100 µM | [17] > 100 µM

COc1ccc(/C=C2\CCC(CNc3ccc(Br)cc3)C2=O)cc1 (stereo not drawn)
inactive: [1] > 100 µM | [2] > 100 µM | [3] 88.7 µM | [4] 81.8 µM | [6] > 100 µM | [7] > 100 µM | [9] 25.9 µM | [18] > 100 µM | [10] 34.1 µM | [11] > 100 µM | [19] > 100 µM | [12] 76 µM | [13] > 100 µM | [15] 80.9 µM | [16] 10.2 µM

CC1=Nc2ccccc2OC(C)=C1/N=N/c1ccc2[nH]c(C)nc2c1
inactive: [1] > 100 µM | [2] 24.4 µM | [3] > 100 µM | [4] > 100 µM | [5] > 100 µM | [6] > 100 µM | [7] > 100 µM | [9] 66.2 µM | [18] > 100 µM | [10] > 100 µM | [11] > 100 µM | [19] > 100 µM | [12] 55.2 µM | [13] > 100 µM | [14] > 100 µM | [16] 84.7 µM | [17] 25.1 µM

NC(=O)C(=CN1C(=O)CC(=O)NC1=S)C(N)=O
inactive: [1] > 100 µM | [2] > 100 µM | [3] > 100 µM | [4] > 100 µM | [5] > 100 µM | [6] > 100 µM | [7] > 100 µM | [9] > 100 µM | [18] > 100 µM | [10] > 100 µM | [19] > 100 µM | [12] > 100 µM | [13] > 100 µM | [14] > 100 µM | [15] > 100 µM | [16] > 100 µM | [17] > 100 µM
